Experimental data taken from PMC3644566 (Journal of chemical information and modeling, 2013).

How the values were obtained:
[1] = system: P. falciparum 3D7 or K1 strains; experiment: P. falciparum growth inhibition assays of VS hits; assay type: cell-based, Plasmodium falciparum; conditions: against either 3D7 or K1 strains, most potent VS hit
[2] = system: P. falciparum 3D7 strain; experiment: P. falciparum growth inhibition assay; assay type: cell-based; conditions: Plasmodium falciparum, 3D7, 72 h, read-out: consensus EC50

Structure (SMILES)	EC50 [1] [nM]	EC50 [2] [nM]
C=CC1CN2CCC1CC2C(OC(=O)C1CC1)c1ccnc2ccccc12 (stereo not drawn) [SJ000565000]	95.6	
CCN(CC)CCCC(C)Nc1ccnc2cc(Cl)ccc12 (stereo not drawn) [chloroquine]		26.8
OC(c1cc(C(F)(F)F)nc2c(C(F)(F)F)cccc12)C1CCCCN1 (stereo not drawn) [mefloquine]		39.8
